Assay results reported in PubChem BioAssay (NCI).
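Five compound concentrations were applied to cells in 96-well plates for 48 hours; endpoints were derived by simple linear interpolation of the resulting dose-response curve. GI50 marks 50% less growth. TGI: total growth inhibition.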

Assays:
Assay in all cases: inhibition of tumour cell growth, NCI panel, 48 h
[1] = system: CAKI-1 renal
[2] = system: HL-60(TB) leukemia
[3] = system: SF-268 CNS
[4] = system: NCI/ADR-RES ovarian
[5] = system: K-562 leukemia
[6] = system: NCI-H522 lung
[7] = system: MDA-MB-435
[8] = system: UACC-62 melanoma
[9] = system: OVCAR-5 ovarian
[10] = system: 786-0 renal
[11] = system: SNB-75 CNS
[12] = system: NCI-H23 lung
[13] = system: MOLT-4 leukemia
[14] = system: HCT-116 colon
[15] = system: SF-295 CNS
[16] = system: UO-31 renal
[17] = system: PC-3 prostate
[18] = system: ACHN renal
[19] = system: CCRF-CEM leukemia
[20] = system: LOX IMVI melanoma
[21] = system: UACC-257 melanoma
[22] = system: U251 CNS
[23] = system: SW-620 colon
[24] = system: DU-145 prostate
[25] = system: OVCAR-8 ovarian
[26] = system: MCF7 breast
[27] = system: HOP-62 NSCLC
[28] = system: T-47D breast
[29] = system: A498 renal
[30] = system: SK-MEL-5 melanoma
[31] = system: BT-549 breast
[32] = system: SK-MEL-28 melanoma
[33] = system: M14 melanoma
[34] = system: MDA-MB-231 breast
[35] = system: SR leukemia
[36] = system: RPMI-8226 leukemia
[37] = system: SK-MEL-2 melanoma
[38] = system: SF-539 CNS
[39] = system: OVCAR-4 ovarian
[40] = system: COLO 205 colon
[41] = system: EKVX NSCLC
[42] = system: OVCAR-3 ovarian
[43] = system: MALME-3M melanoma
[44] = system: KM12 colon
[45] = system: NCI-H226 lung
[46] = system: IGROV1 ovarian
[47] = system: SN12C renal
[48] = system: HCT-15 colon
[49] = system: TK-10 renal
[50] = system: NCI-H460 lung
[51] = system: HOP-92 NSCLC
[52] = system: SK-OV-3 ovarian
[53] = system: RXF 393 renal
[54] = system: HT29 colon

Work on `CC[As](CC)SC[C@H](C)C(=O)N1CCC[C@H]1C(=O)O` yielded a GI50 [1] of under 18.1 nM, a TGI [1] of 64.8 nM and a GI50 [2] of 23 nM. The TGI [2] was 75.7 nM, the GI50 [3] was 249 nM and the TGI [3] was 1000 nM. It also gave a GI50 [4] of 15.2 nM, a TGI [4] of 130 nM and a GI50 [5] of under 10 nM. The TGI [5] was 61.5 nM, the GI50 [6] was 18.9 nM and the TGI [6] was 48.2 nM. It also gave a GI50 [7] of 30.5 nM, a TGI [7] of 114 nM and a GI50 [8] of 149 nM. It also gave a TGI [8] of 538 nM, a GI50 [9] of 245 nM and a TGI [9] of 735 nM. The GI50 [10] was 21 nM, the TGI [10] was 74.3 nM and the GI50 [11] was 79.6 nM. The TGI [11] was 628 nM, the GI50 [12] was 222 nM and the TGI [12] was 616 nM. It also gave a GI50 [13] of 16 nM, a TGI [13] of 58.6 nM and a GI50 [14] of 41.9 nM. For the same compound, the TGI [14] was 162 nM, the GI50 [15] was 743 nM and the TGI [15] was 2000 nM. The GI50 [16] was 24 nM, the TGI [16] was 93.3 nM and the GI50 [17] was 106 nM. The TGI [17] was 589 nM, the GI50 [18] was 54.8 nM and the TGI [18] was 169 nM. It also gave a GI50 [19] of 17 nM, a TGI [19] of 57.3 nM and a GI50 [20] of 45.8 nM. The TGI [20] was 102 nM, the GI50 [21] was 282 nM and the TGI [21] was 1480 nM. It also gave a GI50 [22] of 197 nM, a TGI [22] of 576 nM and a GI50 [23] of 34.4 nM. The TGI [23] was 110 nM, the GI50 [24] was 29.7 nM and the TGI [24] was 104 nM. For the same compound, the GI50 [25] was 123 nM, the TGI [25] was 472 nM and the GI50 [26] was 36.3 nM. The TGI [26] was 159 nM, the GI50 [27] was 417 nM and the TGI [27] was 1370 nM. For the same compound, the GI50 [28] was 414 nM, the TGI [28] was 1960 nM and the GI50 [29] was 296 nM. The TGI [29] was 866 nM, the GI50 [30] was 54 nM and the TGI [30] was 151 nM. For the same compound, the GI50 [31] was 74.9 nM, the TGI [31] was 515 nM and the GI50 [32] was 55 nM. The TGI [32] was 212 nM, the GI50 [33] was 25.7 nM and the TGI [33] was 89.5 nM. For the same compound, the GI50 [34] was 68.6 nM, the TGI [34] was 301 nM and the GI50 [35] was under 10 nM. It also gave a TGI [35] of 10.2 nM, a GI50 [36] of under 10 nM and a TGI [36] of 11.2 nM. The GI50 [37] was 522 nM, the TGI [37] was 1770 nM and the GI50 [38] was 29.1 nM. For the same compound, the TGI [38] was 136 nM, the GI50 [39] was 334 nM and the TGI [39] was 1130 nM. The GI50 [40] was 34.4 nM, the TGI [40] was 140 nM and the GI50 [41] was 162 nM. For the same compound, the TGI [41] was 1720 nM, the GI50 [42] was 13.5 nM and the TGI [42] was 34.7 nM. The GI50 [43] was 44.1 nM, the TGI [43] was 207 nM and the GI50 [44] was 301 nM. It also gave a TGI [44] of 1270 nM, a GI50 [45] of 201 nM and a TGI [45] of 614 nM. It also gave a GI50 [46] of 214 nM, a TGI [46] of 1110 nM and a GI50 [47] of 63.7 nM. It also gave a TGI [47] of 218 nM, a GI50 [48] of 27 nM and a TGI [48] of 194 nM. For the same compound, the GI50 [49] was 113 nM, the TGI [49] was 396 nM and the GI50 [50] was 418 nM. It also gave a TGI [50] of 2170 nM, a GI50 [51] of 17.7 nM and a TGI [51] of 93.3 nM. The GI50 [52] was 326 nM, the TGI [52] was 1050 nM and the GI50 [53] was under 29.7 nM. It also gave a TGI [53] of 475 nM, a GI50 [54] of 339 nM and a TGI [54] of over 100000 nM.
